Values of other authors as cited in article PMC4368888, “Preclinical to Clinical Translation of CNS Transporter Occupancy of TD-9855, a Novel Norepinephrine and Serotonin Reuptake Inhibitor” (International Journal of Neuropsychopharmacology, 2015).

Assays:
SERT and NET = details: in vitro; ref Wu et al., 2008; Tsuruda et al., 2010; cited from earlier work
SERT = SERT (Homo sapiens, UniProt P31645); details: approved dose (100mg) for fibromyalgia; ref Nogami et al., 2013; cited from earlier work
Sequence of SERT (P31645 whole entry): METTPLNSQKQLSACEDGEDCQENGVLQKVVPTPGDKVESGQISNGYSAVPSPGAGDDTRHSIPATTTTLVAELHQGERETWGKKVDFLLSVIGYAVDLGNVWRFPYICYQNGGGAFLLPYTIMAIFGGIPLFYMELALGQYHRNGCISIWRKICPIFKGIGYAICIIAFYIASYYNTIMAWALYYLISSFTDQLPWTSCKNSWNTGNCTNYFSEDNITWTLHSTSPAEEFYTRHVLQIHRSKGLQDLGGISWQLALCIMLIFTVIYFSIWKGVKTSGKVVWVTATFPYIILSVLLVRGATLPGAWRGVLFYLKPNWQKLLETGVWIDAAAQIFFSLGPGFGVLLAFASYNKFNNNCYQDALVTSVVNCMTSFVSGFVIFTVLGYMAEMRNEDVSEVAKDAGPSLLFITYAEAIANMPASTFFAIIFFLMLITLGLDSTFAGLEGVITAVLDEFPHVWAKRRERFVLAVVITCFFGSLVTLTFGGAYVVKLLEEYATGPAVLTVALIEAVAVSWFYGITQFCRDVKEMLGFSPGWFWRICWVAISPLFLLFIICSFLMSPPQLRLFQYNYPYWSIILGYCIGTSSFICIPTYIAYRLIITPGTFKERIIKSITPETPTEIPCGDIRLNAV

| SMILES | functional selectivity for NE (SERT and NET) [fold] | occupancy of SERT (SERT) |
| --- | --- | --- |
| CNCC[C@@H](Oc1ccccc1C)c1ccccc1 [atomoxetine] | ≥ 20 | – |
| CCN(CC)C(=O)C1(c2ccccc2)CC1CN (centres unmarked) [milnacipran] | – | ~ 40% |
